Experimental findings from PubChem BioAssay AID248 (DTP/NCI, 2004) are described below.

Where “and” joins values, the source holds several entries; their conditions need not be identical. Identical values can stand only once. Toxic doses and inconclusive results are not listed.

This test deals with L1210 leukemia ip in BDF1 mice, survival T/C. Briefly: NCI In Vivo Anticancer Drug Screen. Data for tumor model L1210 Leukemia (intraperitoneal) in B6D2F1 (BDF1) mice. The conditions noted are these: endpoint: mean survival time, higher = longer survival. The gist of the method:
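Each compound was tested against a transplantable tumor grown in mice. The endpoint was survival, with treated animals benchmarked against vehicle controls as a simple ratio.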

The mark [1] stands for this setting: dose: 50.0 mg/kg/injection, schedule: Q01DX001 (ip), vehicle: saline.
Where [2] appears, read: dose: 100.0 mg/kg/injection, schedule: Q01DX001 (ip), vehicle: saline.
Setting [3] is: dose: 200.0 mg/kg/injection, schedule: Q01DX001 (ip), vehicle: saline.
Where [4] appears, read: dose: 400.0 mg/kg/injection, schedule: Q01DX001 (ip), vehicle: saline.
Setting [5] is: dose: 100.0 mg/kg/injection, schedule: Q01DX009 (ip), vehicle: saline with Tween-80.
Where [6] appears, read: dose: 200.0 mg/kg/injection, schedule: Q01DX009 (ip), vehicle: saline with Tween-80.
[7] abbreviates: dose: 400.0 mg/kg/injection, schedule: Q01DX009 (ip), vehicle: saline with Tween-80.

On to `CC(C)(CC(N)=O)C(=O)O`, for which the T/C reads like this: under setting [1], 102 % of control; under setting [2], 115 % of control; under setting [3], 113 % of control; under setting [4], 110 % of control.

With `CS(=O)(=O)Nc1cc(Cl)c(NS(C)(=O)=O)c(Cl)c1Cl`, the T/C runs as follows: (dose: 100.0 mg/kg/injection, schedule: Q01DX001 (ip), vehicle: saline with Tween-80) 101 % of control; (dose: 200.0 mg/kg/injection, schedule: Q01DX001 (ip), vehicle: saline with Tween-80) 96 % of control; (dose: 400.0 mg/kg/injection, schedule: Q01DX001 (ip), vehicle: saline with Tween-80) 107 % of control.

`O=C(Nc1ccc(C2=NCCN2)cc1)c1ccc(C(=O)Nc2ccc(C3=NCCN3)cc2)c(F)c1`: the T/C reads like this: (dose: 2.75 mg/kg/injection, schedule: Q01DX Z (ip), vehicle: carboxymethylcellulose (CMC)) 119 % of control; (dose: 11.0 mg/kg/injection, schedule: Q01DX Z (ip), vehicle: carboxymethylcellulose (CMC)) 122 % of control; (dose: 22.0 mg/kg/injection, schedule: Q01DX Z (ip), vehicle: carboxymethylcellulose (CMC)) 227 % of control; (dose: 31.0 mg/kg/injection, schedule: Q01DX Z (oral), vehicle: carboxymethylcellulose (CMC)) 100 % of control; (dose: 45.0 mg/kg/injection, schedule: Q01DX Z (ip), vehicle: carboxymethylcellulose (CMC)) 291 % of control; (dose: 62.0 mg/kg/injection, schedule: Q01DX Z (oral), vehicle: carboxymethylcellulose (CMC)) 101 % of control. In addition, the T/C is, setting by setting: (dose: 90.0 mg/kg/injection, schedule: Q01DX Z (ip), vehicle: carboxymethylcellulose (CMC)) 167 % of control; (dose: 112.0 mg/kg/injection, schedule: Q01DX Z (oral), vehicle: carboxymethylcellulose (CMC)) 105 % of control; (dose: 180.0 mg/kg/injection, schedule: Q01DX Z (ip), vehicle: carboxymethylcellulose (CMC)) 94 % of control; (dose: 225.0 mg/kg/injection, schedule: Q01DX Z (oral), vehicle: carboxymethylcellulose (CMC)) 103 % of control.

As to `Cc1ccc(S(=O)(=O)/N=C2\SCc3ccccc32)cc1`, the T/C (dose: 12.5 mg/kg/injection, schedule: Q01DX009 (ip), vehicle: saline) is 108 % of control; the T/C (dose: 25.0 mg/kg/injection, schedule: Q01DX009 (ip), vehicle: saline) is 105 % of control; the T/C (dose: 50.0 mg/kg/injection, schedule: Q01DX009 (ip), vehicle: saline) is 94 % of control and 101 % of control; the T/C (dose: 100.0 mg/kg/injection, schedule: Q01DX001 (ip), vehicle: Klucel (hydroxypropylcellulose) (HPC)) was 94 % of control; the T/C (dose: 200.0 mg/kg/injection, schedule: Q01DX001 (ip), vehicle: Klucel (hydroxypropylcellulose) (HPC)) is 88 % of control; the T/C (dose: 400.0 mg/kg/injection, schedule: Q01DX001 (ip), vehicle: Klucel (hydroxypropylcellulose) (HPC)) is 98 % of control.

In the case of `O=P(NCCCO)(OCc1ccccc1)N(CCCl)CCCl` (stereo not given), the T/C (dose: 62.5 mg/kg/injection, schedule: Q01DX010 (ip), vehicle: saline) was 87 % of control; the T/C (dose: 125.0 mg/kg/injection, schedule: Q01DX010 (ip), vehicle: saline) is 98 % of control; the T/C (dose: 250.0 mg/kg/injection, schedule: Q01DX010 (ip), vehicle: saline) is 90 % of control; the T/C (dose: 250.0 mg/kg/injection, schedule: Q01DX Z (ip), vehicle: saline) was 95 % of control; the T/C (dose: 500.0 mg/kg/injection, schedule: Q01DX Z (ip), vehicle: saline) was 95 % of control; the T/C (dose: 750.0 mg/kg/injection, schedule: Q01DX Z (ip), vehicle: saline) is 118 % of control.

For the molecule `CCCCCCCCCCCCCCCCCC(=O)NCC[N+](C)(C)C`, the T/C was 98 % of control (dose: 5.0 mg/kg/injection, schedule: Q01DX001 (ip), vehicle: saline); 96 % of control (dose: 10.0 mg/kg/injection, schedule: Q01DX001 (ip), vehicle: saline); 98 % of control (dose: 20.0 mg/kg/injection, schedule: Q01DX001 (ip), vehicle: saline); 93 % of control (dose: 40.0 mg/kg/injection, schedule: Q01DX001 (ip), vehicle: saline); 102 % of control (dose: 80.0 mg/kg/injection, schedule: Q01DX001 (ip), vehicle: saline).

As for `CC(=O)OC(C)CC1CCCCC12OCCO2` (stereo not given), the T/C was 103 % of control under setting [1], 108 % of control under setting [2], 100 % of control under setting [3] and 108 % of control under setting [4].

As for `COC1(C)C(=O)Oc2c1c1ccccc1c1ccccc21` (stereo not given), the T/C reads like this: (dose: 75.0 mg/kg/injection, schedule: Q01DX001 (ip), vehicle: carboxymethylcellulose (CMC)) 94 % of control; (dose: 150.0 mg/kg/injection, schedule: Q01DX001 (ip), vehicle: carboxymethylcellulose (CMC)) 89 % of control.

As for `O=[N+]([O-])c1cc(Br)c2c(c1)CCN2`, the T/C (dose: 12.5 mg/kg/injection, schedule: Q01DX005 (ip), vehicle: other) was 100 % of control; the T/C (dose: 25.0 mg/kg/injection, schedule: Q01DX005 (ip), vehicle: other) was 102 % of control; the T/C (dose: 50.0 mg/kg/injection, schedule: Q01DX005 (ip), vehicle: other) was 100 % of control; the T/C (dose: 100.0 mg/kg/injection, schedule: Q01DX005 (ip), vehicle: other) was 105 % of control; the T/C (dose: 200.0 mg/kg/injection, schedule: Q01DX005 (ip), vehicle: other) is 102 % of control.

Regarding `Oc1ccc2ccccc2c1Cc1ccccc1`, the T/C is, setting by setting: under setting [5], 99 % of control; under setting [6], 89 % of control; under setting [7], 92 % of control.

Consider `CC(=O)N=c1ccc(C)cn1O`, for which the T/C (dose: 75.0 mg/kg/injection, schedule: Q01DX009 (ip), vehicle: Klucel (hydroxypropylcellulose) (HPC)) was 91 % of control; the T/C (dose: 100.0 mg/kg/injection, schedule: Q04DX003 (ip), vehicle: Klucel (hydroxypropylcellulose) (HPC)) is 104 % of control; the T/C (dose: 150.0 mg/kg/injection, schedule: Q01DX009 (ip), vehicle: Klucel (hydroxypropylcellulose) (HPC)) is 102 % of control; the T/C (dose: 200.0 mg/kg/injection, schedule: Q04DX003 (ip), vehicle: Klucel (hydroxypropylcellulose) (HPC)) was 100 % of control; the T/C (dose: 300.0 mg/kg/injection, schedule: Q01DX009 (ip), vehicle: Klucel (hydroxypropylcellulose) (HPC)) was 96 % of control; the T/C (dose: 400.0 mg/kg/injection, schedule: Q04DX003 (ip), vehicle: Klucel (hydroxypropylcellulose) (HPC)) was 102 % of control.

For `CCCCCCCCCCCCCCCCOC(=O)C[n+]1cccc(C(N)=O)c1`, the T/C is, setting by setting: (dose: 100.0 mg/kg/injection, schedule: Q04DX003 (ip), vehicle: saline) 92 % of control; (dose: 200.0 mg/kg/injection, schedule: Q04DX003 (ip), vehicle: saline) 99 % of control.

In the case of `O=S(=O)(Nc1ccc(O)c(Cl)c1)c1ccccc1`, the T/C runs as follows: under setting [5], 100 % of control; under setting [6], 103 % of control; under setting [7], 95 % of control.

Consider `CCCCOC(=N)Cc1cc(OC)c(OC)c(OC)c1`, for which the T/C was 98 % of control (dose: 75.0 mg/kg/injection, schedule: Q04DX003 (ip), vehicle: saline with Tween-80); 92 % of control (dose: 150.0 mg/kg/injection, schedule: Q04DX003 (ip), vehicle: saline with Tween-80); 98 % of control (dose: 300.0 mg/kg/injection, schedule: Q04DX003 (ip), vehicle: saline with Tween-80).

As to `[Co+3].[NH-]CC(=O)O.[NH-]CC(=O)O.[NH-]CC(=O)O`, the T/C is, setting by setting: (dose: 200.0 mg/kg/injection, schedule: Q04DX002 (ip), vehicle: saline with Tween-80) 122 % of control; (dose: 400.0 mg/kg/injection, schedule: Q04DX002 (ip), vehicle: saline with Tween-80) 115 % of control.

For the molecule `O=C(Nc1ncc([N+](=O)[O-])s1)c1ccccc1Oc1ccccc1`, the T/C runs as follows: (dose: 100.0 mg/kg/injection, schedule: Q04DX002 (ip), vehicle: Klucel (hydroxypropylcellulose) (HPC)) 102 % of control; (dose: 200.0 mg/kg/injection, schedule: Q04DX002 (ip), vehicle: Klucel (hydroxypropylcellulose) (HPC)) 115 % of control; (dose: 400.0 mg/kg/injection, schedule: Q04DX002 (ip), vehicle: Klucel (hydroxypropylcellulose) (HPC)) 100 % of control.

With `Cc1[nH]c(=S)oc1C`, the T/C is 105 % of control (dose: 75.0 mg/kg/injection, schedule: Q01DX001 (ip), vehicle: other); 97 % of control (dose: 150.0 mg/kg/injection, schedule: Q01DX001 (ip), vehicle: other); 103 % of control (dose: 300.0 mg/kg/injection, schedule: Q01DX001 (ip), vehicle: other).
